Measurements from patent US11596649B2, “Composition in powder form comprising iron and probiotic bacteria” (NESTEC S.A., priority 2016, dated 2023).
Read-outs that look alike come from different tables or passages of the source.

Key:
probiotic bacteria = experiment: Viability of probiotic bacteria with added iron source (general finding); assay type: cell-based; settings: iron source in powder composition with probiotic bacteria, at reconstitution
[1] = in human; Hurrell, Iron Fortification of Foods, 1985; cited from earlier work
[2] = tested on: Lactobacillus rhamnosus (deposited as CGMCC 1.3724); settings: 10 and 30 mg Fe2+ per 100 g maltodextrin model composition, FIG. 1
Protocol: (§1) The maltodextrin, the dried probiotic powder and the iron source were added together in a 500 mL plastic beaker and mixed for 5 minutes at 34 rpm using a Turbula® T2F dry mixer (WAB, Switzerland). An amount of 25 g of freshly mixed sample was diluted 1/10 in an aqueous tryptone salt solution supplemented with anti-foaming agent at 37° C. After 5 minutes of homogenization using a Masticator® (IUL, Spain), decimal dilutions were performed. The appropriate dilution resulting in 30-300 colonies after incubation was then transferred to a petri dish and mixed with MRS agar according to the pour plate method. Once solidified the plates were incubated at 37° C. under aerobic conditions. After 48 h of incubation the colonies present on the plates were counted.

[3] = tested on: Bifidobacterium longum (deposited as ATCC BAA-999); settings: 5, 25 and 50 mg Fe2+ per 100 g maltodextrin model composition, FIG. 2
Protocol: The Samples were produced as follows. The maltodextrin, the dried probiotic powder and the iron source were added together in a 500 mL plastic beaker and mixed for 5 minutes at 34 rpm using a Turbula® T2F dry mixer (WAB, Switzerland). An amount of 25 g of freshly mixed sample was diluted 1/10 in an aqueous tryptone salt solution supplemented with anti-foaming agent at 37° C. After 5 minutes of homogenization using a Masticator® (IUL, Spain), decimal dilutions were performed. The appropriate dilution resulting in 30-300 colonies after incubation was then transferred to a petri dish and mixed with RCA agar according to the pour plate method. Once solidified the plates were incubated at 37° C. under anaerobic conditions. After 48 h of incubation the colonies present on the plates were counted.

[4] = tested on: Lactobacillus rhamnosus (deposited as CGMCC 1.3724); settings: FIG. 4; for loss of live L. rhamnosus in the reconstituted compositions: 10 and 30 mg Fe2+ per 100 g infant formula powder (Nestogen 1)
Protocol: An amount of 25 g of freshly mixed sample was diluted 1/10 in an aqueous tryptone salt solution supplemented with anti-foaming agent at 37° C. After 5 minutes of homogenization using a Masticator® (IUL, Spain), decimal dilutions were performed. The appropriate dilution resulting in 30-300 colonies after incubation was then transferred to a petri dish and mixed with MRS agar according to the pour plate method. Once solidified the plates were incubated at 37° C. under aerobic conditions. After 48 h of incubation the colonies present on the plates were counted.

[5] = tested on: Bifidobacterium longum (deposited as ATCC BAA-999); settings: FIG. 5; for loss of live Bifidobacterium longum in the reconstituted compositions: 25 and 50 mg Fe2+ per 100 g infant formula powder (Nestogen 1)
Protocol: The Samples were produced as follows. The infant formula powder, the dried probiotic powder and the iron source were added together in a 500 mL plastic beaker and mixed for 5 minutes at 34 rpm using a Turbula® T2F dry mixer (WAB, Switzerland). An amount of 25 g of freshly mixed sample was diluted 1/10 in an aqueous tryptone salt solution supplemented with anti-foaming agent at 37° C. After 5 minutes of homogenization using a Masticator® (IUL, Spain), decimal dilutions were performed. The appropriate dilution resulting in 30-300 colonies after incubation was then transferred to a petri dish and mixed with RCA agar according to the pour plate method. Once solidified the plates were incubated at 37° C. under anaerobic conditions. After 48 h of incubation the colonies present on the plates were counted.

[6] = tested on: Lactobacillus paracasei (deposited as CNCM I-2116); experiment: Survival of Lactobacillus paracasei on reconstitution, maltodextrin model composition (Example 3, plate count); assay type: cell-based; settings: 5, 25 and 50 mg Fe2+ per 100 g maltodextrin model composition, FIG. 3
Protocol: as §1

[7] = in rat; Hurrell, Iron Fortification of Foods, 1985; cited from earlier work

Compound | loss of viability of probiotic bacteria (probiotic bacteria) | average bioavailability [1] [%] | loss of live L. rhamnosus in the reconstituted compositions [2] | loss of live Bifidobacterium longum in the reconstituted compositions [3] | loss of live L. rhamnosus in the reconstituted compositions [4] | loss of live Bifidobacterium longum in the reconstituted compositions [5] | loss of live Lactobacillus paracasei in the reconstituted compositions [6] | loss of viable Lactobacillus paracasei compared with dissolved ferrous sulphate in spray-dried form ([6]; all iron concentrations) | loss of viable Lactobacillus rhamnosus compared with dissolved ferrous sulphate in spray-dried form ([2]; both iron concentrations) | loss of viable Bifidobacterium longum compared with dissolved ferrous sulphate in spray-dried form ([3]; all iron concentrations) | loss of viable Lactobacillus rhamnosus compared with dissolved ferrous sulphate in spray-dried form ([4]; 10 and 30 mg Fe2+ per 100 g infant formula composition, both iron concentrations) | loss of viable Bifidobacterium longum compared with dissolved ferrous sulphate in spray-dried form ([5]; 25 and 50 mg Fe2+ per 100 g infant formula composition, all iron concentrations) | bioavailability [7] [%]
O=C([O-])CC(O)(CC(=O)O)C(=O)[O-].[Fe+2] [ferrous citrate] | do not significantly impair | 74 | – | – | – | – | – | – | – | – | – | – | –
O.O.O.O.O.O.O.O=S(=O)([O-])[O-].[Fe+2] [ferrous sulphate heptahydrate, reference compound] | significant loss | – | significant loss | significant loss | significant loss | significant loss | – | – | – | – | – | – | –
O.O=S(=O)([O-])[O-].[Fe+2] [ferrous sulphate monohydrate] | no significant loss | – | no significant loss | no significant loss | no significant loss | no significant loss | no significant loss | significantly lower | significantly lower | significantly lower | significantly lower | significantly lower | –
ferric citrate | do not significantly impair | 31 | – | – | – | – | – | – | – | – | – | – | 75
